Data as given in US20250064761A1, “SUBSTITUTED BENZAMIDES AND THEIR USE IN THERAPY” (PHARMACYL AB, priority 2018, published 2025).
Counter-ions that a name gives are not always drawn.

Legend:
[1] = tested on: LPS-induced TNF-production in RAW264.7 murine macrophage cells; test: Suppression of LPS-induced TNF-α production in macrophages (ELISA); assay type: cell-based; settings: Mus musculus, RAW264.7, read-out: % Inhibition of TNF-production
Method: The RAW264.7 macrophage line was maintained in DMEM supplemented with 5% FBS at 37° C. in a 5% CO2-humidified air environment. The RAW264.7 cells were seeded in 96-well plates at a density of 1×10^5/ml and a volume of 200 μl/well. The cells were incubated for 24 h in medium supplemented with 10% FBS and were then pre-incubated with or without the indicated concentrations of test substances for 2 h prior to the addition of LPS (1 μg/ml). The supernatants were subsequently harvested at various time points and production of the proinflammatory cytokine TNF-α in the culture medium was determined using a commercially available enzyme-linked immunosorbent assay (ELISA) kit according to the manufacturer's protocol.
Effects of some AABZs of the invention at 1 mM on LPS-induced TNF-production in RAW264.7 murine macrophage cells are shown in Table 2.

[2] = tested on: DSS induced colitis in Balb/c mice; test: Dextran sulfate sodium (DSS) induced inflammatory bowel disease in mice; assay type: in vivo; parameters: key to Blood in the Stool score LS means ± SE: 0 = normal, 2 = Hemoccult+, 4 = gross bleeding; key to Disease Activity Index LS means ± SE: sum of stool, blood and weight-loss scores (each 0-4), max 12
Method: The experiment was performed using 6- to 8-week old female Balb/c mice after a one-week acclimatization period. The mice weighed 18-25 g, were purchased from Taconic (Denmark) and were maintained in a temperature and light-controlled facility with free access to standard rodent chow and water. Mice were randomized to the respective groups five days before start of treatment and were kept 5 to 6 animals […] per cage. […] The DSS intake was assessed daily. SASP (from Sigma-Aldrich, Sweden) was first dissolved in 0.2 M sodium hydroxide (NaOH) at a concentration higher than the required final concentration. Phosphate buffered saline (PBS) was added to the desired concentration and the pH was adjusted to 7.5-8.0 with NaOH or hydrochloric acid. SASP remained completely dissolved at this pH. Cpd A was dissolved in PBS to the desired concentration. All animal groups had free access to 5% DSS water solution for the entire test period. Treatments were administered from day 0 to day 5, either orally by gavage (SASP) or intraperitoneally (Cpd A), and in an administration volume of 5 ml/kg, twice daily with approximately an 8-hour interval. The control group (DSS only) received water (0.2 ml) orally twice daily.
The parameters recorded in the experiment were stool consistency (0, normal; 2, loose stools; 4, watery diarrhoea), occurrence of blood in the stool (0, normal; 2, Hemoccult+; 4, gross bleeding), and body weight loss (0, none; 1, 1-5%; 2, 5-10%; 3, 10-20%; 4, >20%). Disease activity index (DAI) was calculated by summarizing the scores of these three parameters. Also the colon length and the colonic content of myeloperoxidase (MPO) were recorded. Data was statistically evaluated with analysis of variance (ANOVA). Least-squares means (LS means), and standard error (SE) of LS means were calculated.

[3] = tested on: collagen-induced arthritis in DBA/1 mice; test: Collagen-induced arthritis; assay type: in vivo; settings: 200 mg/kg/day in drinking water from day 14 to day 49
Method: The experiment was performed using 9-week old male DBA/1 mice after a two-week acclimatization period. The mice were purchased from B&M (Denmark), and were maintained in a temperature and light-controlled facility with free access to standard rodent chow and water. Following the acclimatization period, the mice (10 per treatment group) were anesthesized with Enflurane and immunized intradermally in the base of the tail with […] of a 1:1 emulsion consisting of Freund's Complete Adjuvant H37Ra (Difco) and 2 mg/mL bovine type II collagen (Elastin Products, Owensville, MO) in 0.1 M acetic acid. On day 14 post-immunization, the mice were given ad lib access to drinking water containing Cpd A, with treatment continuing daily until termination of the experiment (day 49). The Cpd A intake was monitored by weighing the drinking bottles at the water renewal twice per week. The control group received water ad lib.
The mice were monitored for clinical signs of arthritis three times a week from immunization to day 49. […] The four measurements were summed for each mouse, and group averages were calculated. Mice with a score >12 were sacrificed. In the scoring protocol, the last observation carried forward (LOCF) method was used.
Mean onset day was defined as the mean day of onset in mice being affected. […]
Statistical significance was determined using Mann-Whitney Rank Sum test. […]

dopamine D2 receptor = dopamine D2 receptor (Rattus norvegicus, UniProt P61169); assay type: binding; settings: in vitro; 125I-spiperone
dopamine D2 receptor, sequence (P61169 whole entry, looked up): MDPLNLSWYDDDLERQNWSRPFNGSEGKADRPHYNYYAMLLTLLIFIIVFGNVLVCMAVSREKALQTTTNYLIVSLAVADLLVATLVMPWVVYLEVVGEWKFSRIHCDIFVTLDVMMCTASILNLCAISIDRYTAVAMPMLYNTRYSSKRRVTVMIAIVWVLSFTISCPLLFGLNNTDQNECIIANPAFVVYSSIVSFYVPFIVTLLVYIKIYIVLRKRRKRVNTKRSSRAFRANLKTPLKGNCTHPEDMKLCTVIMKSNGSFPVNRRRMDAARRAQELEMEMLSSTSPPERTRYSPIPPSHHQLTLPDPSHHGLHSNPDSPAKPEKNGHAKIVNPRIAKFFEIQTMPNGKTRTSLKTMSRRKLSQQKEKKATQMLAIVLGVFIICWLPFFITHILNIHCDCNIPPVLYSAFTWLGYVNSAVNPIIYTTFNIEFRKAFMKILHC

`CCN(CC)CCNC(=O)c1ccc(NC(=O)C(C)C)c(Cl)c1` [4-Isobutyrylamino-3-chloro-N-[2-(diethylamino)ethyl]benzamide hydrochloride] was tested. Which inhibition at 1000 µM [1] did it give?
Its inhibition at 1000 µM is 63%.

For `CCC(=O)Nc1ccc(C(=O)NCCN(CC)CC)cc1Cl` [4-Propanoylamino-3-chloro-N-[2-(diethylamino)ethyl]benzamide hydrochloride], which inhibition at 1000 µM [1] is on record?
Its inhibition at 1000 µM is 50%.

Which results are given for `CCN(CC)CCNC(=O)c1ccc(NC(C)=O)c(Cl)c1` [Cpd A, 4-Acetamido-3-chloro-N-[2-(diethylamino)ethyl]benzamide hydrochloride]?
inhibition at 1000 µM [1]: 45%; Disease Activity Index score reduction by Cpd A versus SASP treatment ([2]; Cpd A 100 mg/kg/day bid ip vs SASP 40 mg/kg/day bid po, p<0.016): 60%; Blood in the Stool Percent Reduction of Score vs control ([2]; day 5, 50 mg/kg/day bid ip): 9%; Blood in the Stool score LS means ± SE ([2]; day 5, 50 mg/kg/day bid ip): 2.2 ± 0.3; Disease Activity Index LS means ± SE ([2]; day 5, 50 mg/kg/day bid ip): 6.4 ± 0.5; Disease Activity Index Percent Reduction of Score vs control ([2]; day 5, 50 mg/kg/day bid ip): 7%; Blood in the Stool Percent Reduction of Score vs control ([2]; day 5, 100 mg/kg/day bid ip): 96%; Disease Activity Index LS means ± SE ([2]; day 5, 100 mg/kg/day bid ip): 1.7 ± 1.0; Disease Activity Index Percent Reduction of Score vs control ([2]; day 5, 100 mg/kg/day bid ip): 75%; Blood in the Stool score LS means ± SE ([2]; day 5, 100 mg/kg/day bid ip, hydrochloride): 0.1±0.5; delay of mean onset of disease compared to the control group ([3]; p=0.02): 5.8 days; reduction of severity of arthritis score compared to the control group ([3]; p=0.05): 1.6; affinity for the dopamine D2 subtype receptor (in words) (dopamine D2 receptor): very low affinity

For `O=C(O)c1cc(/N=N/c2ccc(S(=O)(=O)Nc3ccccn3)cc2)ccc1O` [SASP, sulfasalazine, reference compound], which “frequency of diarrhoea (stool consistency score of 2 and 4)” value ([2]; day 3, 40 mg/kg/day bid po) is on record?
Its value is 8%.

What about the “Blood in the Stool Percent Reduction of Score vs control” value ([2]; day 5, 40 mg/kg/day bid po) of the same molecule?
Its value is 42%.

What about the “Blood in the Stool score LS means ± SE” value ([2]; day 5, 40 mg/kg/day bid po) of the same molecule?
Its value is 1.4±0.2.

And the “Disease Activity Index LS means ± SE” value ([2]; day 5, 40 mg/kg/day bid po)?
Its value is 4.4 ± 0.4.

What about the “Disease Activity Index Percent Reduction of Score vs control” value ([2]; day 5, 40 mg/kg/day bid po) of the same molecule?
The value was 36%.

What about the “frequency of diarrhoea (stool consistency score of 2 and 4)” value ([2]; day 5, 40 mg/kg/day bid po) of the same molecule?
Its value is 71%.
